Results reported in publication PMC7738508, “A therapeutic combination of two small molecule toxin inhibitors provides broad preclinical efficacy against viper snakebite” (Nature Communications, 2020).
Several values for one entry are separate records, joined by “and”; a condition that tells them apart may be missing. Equal entries are not always repeated. Where two headings read alike, the source gives them in different places.

Columns and labels:
[1] = tested on: SVMP bioactivity of the four active venoms (E. ocellatus, E. carinatus, B. asper, B. arietans); test: in vitro kinetic fluorogenic SVMP assay, viper venoms overall; assay type: biochemical; settings: four active venoms; marimastat 150 nM to 150 µM, batimastat […] and 150 nM
Procedure: (§1) The SVMP assay measuring metalloproteinase activity and the plasma assay measuring coagulation in the presence or absence of venoms and inhibitors were performed as previously described. The SVMP assay kinetically measured cleavage of a quenched fluorogenic substrate (ES010, R&D Biosystems) by venom in the presence or absence of inhibitors.
(§2) Briefly, 10 µl of the substrate (supplied as a 6.2 mM stock) was used per 5 ml reaction buffer (150 mM NaCl, 50 mM Tris-Cl pH 7.5). Reactions consisted of 10 µl of venom ± inhibitors in PBS and 90 µl of substrate. Venoms were used at 1 µg/reaction and final inhibitor concentrations ranged from 150 µM to 150 nM. Samples were preincubated for 30 min at 37 °C and pipetted in triplicate into 384-well plates (Greiner). Thereafter, data was collected on an Omega FLUOstar (BMG Labtech) instrument at an excitation wavelength of 320 nm and emission wavelength of 405 nm at 25 °C for 1 h. The areas under the curve (AUCs) in the 0–40 min interval were calculated for each sample using MARS data analysis software v3.31 (BMG Labtech); this time point was chosen as the time where all fluorescence curves had reached a plateau (maximum fluorescence). For comparing venom-only samples, the means of at least three independent experimental runs for each condition, expressed as AUCs (n ≥ 3), were plotted at each inhibitor concentration with standard error of the mean (SEM). To determine inhibitor efficacy, the AUCs for each of the samples that consisted of venom + inhibitors were transformed and expressed as percentages of the venom-only sample (where the venom was 100%). The negative control (PBS-only) was also expressed relative to the venom, and the variation in background was presented as an interval delineated by the lowest and highest values in the PBS-only samples across concentrations and inhibitors for a specific venom.

E. ocellatus venom = test: in vivo preincubation model of envenoming (i.v.); parameters: species or system CD-1 mice
Procedure: All animal experiments were conducted using protocols approved by the Animal Welfare and Ethical Review Boards of the Liverpool School of Tropical Medicine and the University of Liverpool, and performed in specific pathogen-free conditions under licensed approval (PPL #4003718 and #P5846F90) of the UK Home Office and in accordance with the Animal [Scientific Procedures] Act 1986 and institutional guidance on animal care. All experimental animals (18–20 g [4–5 weeks old], male, CD-1 mice, Charles River, UK) were housed in groups of five with environmental enrichment, water and food ad libitum and their health monitored daily during acclimatization. The experimental design was based upon 3R-refined WHO-recommended protocols[28],[41], with animals randomized and observers being blinded to the experimental condition. The median lethal doses (venom LD50) used for E. ocellatus (Nigeria), E. carinatus (India), B. asper (Costa Rica), D. russelii (Sri Lanka) and B. arietans (Nigeria) venoms were previously determined[25],[41],[44],[45].
All experimental doses were prepared to a volume of 200 µl in PBS and incubated at 37 °C for 30 min prior to their intravenous injection via the tail vein. Animals were monitored for 6 h, and euthanized via rising concentrations of CO2 upon observation of previously defined humane end points that are predicators of lethality (e.g., seizure, pulmonary distress, paralysis, hemorrhage)[28]. Deaths, time of death, and survivors were recorded; where death/time of death actually represents the implementation of euthanasia based on defined humane end points.
For all experimental animals described above, blood samples were collected via cardiac puncture immediately post-euthanasia. Plasma was separated by centrifugation at 400 × g for 10 min and stored at −80 °C. We assessed the levels of thrombin-antithrombin complexes (TAT) and soluble thrombomodulin using mouse ELISA Kits (ab137994 and ab209880, Abcam), following the manufacturer’s protocol. All available plasma samples (some were unobtainable via cardiac puncture due to extensive internal hemorrhage) were assessed if the time of death within the group varied, whereas three samples were randomly chosen if the time of death was the same (e.g., either very rapid death within 2 min, or survival until the end of the experiment [360 min or 24 h]). The resulting data was plotted as the median of duplicate measurements for each animal and is presented with standard deviations (SDs).

[2] = tested on: procoagulant activity of Echis carinatus venom (citrated bovine plasma); test: plasma clotting assay; assay type: biochemical; parameters: key: max of first derivative of A595 clot curve (max clotting velocity); settings: Echis carinatus venom 100 ng, independent repeats
Procedure: We used a previously developed plasma clotting assay[35] to measure venom-induced coagulation. Briefly, 100 ng of each venom was incubated at 37 °C for 30 min in the presence or absence of inhibitors (150 µM to 150 nM final concentrations). The final reaction consisted of 10 µl venom ± inhibitors in PBS, 20 µl 20 mM CaCl2, and 20 µl citrated bovine plasma (VWR). The samples were pipetted in triplicate into 384-well plates, and absorbance monitored at 595 nm for 2 h at 25 °C on an Omega FLUOstar instrument. We calculated the maximum clotting velocity of each of the curves as per clot waveform analysis, by calculating the maximum of the first derivative. The means of at least three independent experimental runs for each condition were plotted at each inhibitor concentration with SEMs.

[3] = cited from earlier work
[4] = parameters: method as in PMID 29735645; settings: cited from earlier work
[5] = tested on: Bitis arietans venom SVMP activity; test: fluorogenic SVMP assay; assay type: biochemical; settings: independent repeats
Procedure: as §1, §2

[6] = tested on: Bothrops asper venom SVMP activity; test: fluorogenic SVMP assay; assay type: biochemical; settings: independent repeats
Procedure: as §1, §2

[7] = tested on: Echis ocellatus venom SVMP activity; test: fluorogenic SVMP assay; assay type: biochemical; settings: independent repeats
Procedure: as §1, §2

[8] = tested on: Echis carinatus venom SVMP activity; test: fluorogenic SVMP assay; assay type: biochemical; settings: inhibitor 15 µM, independent repeats
Procedure: as §1, §2

## CNC(=O)[C@@H](NC(=O)[C@H](CC(C)C)[C@H](O)C(=O)NO)C(C)(C)C [marimastat]
[1]
  neutralization of SVMP bioactivity: complete in vitro neutralization
E. ocellatus venom; 45 µg E. ocellatus venom preincubated with 60 µg inhibitor/mouse, i.v.
  animals surviving the 6 h experiment (groups of five): four
E. ocellatus venom; 45 µg E. ocellatus venom preincubated with 60 µg of each drug, i.v., 6 h
  protection against venom-induced lethality: prolonged the survival
E. ocellatus venom; plasma after euthanasia, E. ocellatus venom + 60 µg of each drug, venom-only mean 1127.3, normal mice 10.2–15.9
  thrombin-antithrombin (TAT) levels, range in group: 231.2 to 267.9 ng/mL
[2]; inhibitor 15 µM
  maximum clotting velocity: 0.03177 and 0.03235
[2]; inhibitor 150 µM
  maximum clotting velocity: 0.03353 and 0.03265 and 0.02823
[3]; 28 days, patients with advanced pancreatic cancer
  daily doses with no notable side effects: 75 mg
[3]
  single doses with no notable side effects: up to 800 mg
[3]; for 6.5 days
  bidaily doses with no notable side effects: 200 mg
[3]; no reference given
  oral bioavailability: 70%
[3]; oral
  half-life: 8 to 10 h
  time to peak plasma concentrations post-administration: 1.5 to 3 h
[3]; vs parenteral administration of batimastat
  oral bioavailability: excellent oral bioavailability
[4]
  solubility compared with batimastat: increased solubility
[5]; inhibitor 15 µM
  SVMP activity, percentage of the venom-only sample: 15.1667% and 15.8748% and 15.6727%
[5]; inhibitor 150 µM
  SVMP activity, percentage of the venom-only sample: 14.1911% and 15.0205% and 14.976%
[6]; inhibitor 15 µM
  SVMP activity, percentage of the venom-only sample: 33.0579% and 34.1722% and 57.3186%
[6]; inhibitor 150 µM
  SVMP activity, percentage of the venom-only sample: 29.6154% and 33.7275% and 43.4535%
[7]; inhibitor 15 µM
  SVMP activity, percentage of the venom-only sample: 19.3205% and 20.8108% and 21.1203%
[7]; inhibitor 150 µM
  SVMP activity, percentage of the venom-only sample: 18.1136% and 19.6025% and 15.3204%
[8]
  SVMP activity, percentage of the venom-only sample: 11.481% and 22.9494% and 21.3373%
